Tests used:
[1] = molecular target: T1, rat mGluR5 (Rattus norvegicus, UniProt P31424); assay: mGluR5 assay on HEK-expressing rat mGluR5 (fluorescent cell based Ca2+ mobilization assay); settings: HEK-293 cells stably expressing rat mGluR5; no co-addition of glutamate; mean of at least three independent experiments in duplicate; read-out: Ca++ Flux (mean EC50)
T1 construct: expressed in transfected cells
Procedure: Positive functional expression of HEK-293 cells stably expressing rat mGluR5 receptor was determined by measuring intracellular Ca^2+ changes using a Fluorometric Imaging Plate Reader (FLIPR, Molecular Devices, Sunnyvale, Calif.) in response to glutamate or selective known mGluR5 agonists and antagonists. Rat mGluR5RT-PCR products in HEK-293 cells were sequenced and found 100% identical to rat mGluR5Genbank reference sequence (NM_017012). HEK-293 cells expressing rmGluR5 were maintained in media containing DMEM, dialyzed Fetal Bovine Serum (10%), Glutamax™ (2 mM), Penicillin (100 units/ml), Streptomycin (100 μg/ml), Geneticin (100 μg/ml) and Hygromycin-B (40 μg/ml) at 37° C./5% CO2.
After one day of incubation, cells were washed with assay buffer containing: 142 mM NaCl, 6 mM KCl, 1 mM […], 1 mM CaCl2, 20 mM HEPES, 1 g/L glucose, 0.125 mM sulfinpyrazone, pH 7.4. After 60 min of loading with 4 uM Fluo-4 (TefLabs, Austin, Tex.), the cells were washed three times with 50 μl of PBS Buffer and resuspended in 45 μl of assay Buffer. The plates were then transferred to a Fluorometric Imaging Plate Reader (FLIPR, Molecular Devices, Sunnyvale, Calif.) for the assessment of intracellular calcium flux. After monitoring the baseline fluorescence for 10 seconds, increasing concentrations of representative compound (from 0.01 to 60 μM) of the present invention diluted in Assay Buffer (15 μl of 4× dilutions) was added to the cell. The final DMSO concentration in the assay was 0.3%. In each experiment, fluorescence was then monitored as a function of time for 3 minutes and the data analyzed using Microsoft Excel and GraphPad Prism. Each data point was also measured two times.
Under these experimental conditions, this HEK-rat mGluR5 cell line is able to directly detect positive allosteric modulators without the need of co-addition of glutamate or mGluR5 agonist.
The concentration-response curves of representative compounds of the present invention were generated using the Prism GraphPad software (Graph Pad Inc, San Diego, USA). The curves were fitted to a four-parameter logistic equation:
(Y=Bottom+(Top−Bottom)/(1+10̂((Log EC50−X)*Hill Slope)
allowing determination of EC50 values.
The Table 5 below represents the mean EC50 obtained from at least three independent experiments of selected molecules performed in duplicate.

[2] = molecular target: T2, mGluR5 (Rattus norvegicus, UniProt P31424); assay: mGluR5 binding assay ([3H]-MPEP radioligand binding, rat brain membranes); settings: 3 nM [3H]-MPEP, 1 h at 4° C., read-out: IC50, inhibition of [3H]-MPEP binding
T2 construct: positive allosteric modulators of mGluR5 receptors in native preparations; endogenous in cells; host or cells: primary cortical astrocytes from Sprague-Dawley rat embryos (E16-19)
T2 sequence (P31424 21-1203): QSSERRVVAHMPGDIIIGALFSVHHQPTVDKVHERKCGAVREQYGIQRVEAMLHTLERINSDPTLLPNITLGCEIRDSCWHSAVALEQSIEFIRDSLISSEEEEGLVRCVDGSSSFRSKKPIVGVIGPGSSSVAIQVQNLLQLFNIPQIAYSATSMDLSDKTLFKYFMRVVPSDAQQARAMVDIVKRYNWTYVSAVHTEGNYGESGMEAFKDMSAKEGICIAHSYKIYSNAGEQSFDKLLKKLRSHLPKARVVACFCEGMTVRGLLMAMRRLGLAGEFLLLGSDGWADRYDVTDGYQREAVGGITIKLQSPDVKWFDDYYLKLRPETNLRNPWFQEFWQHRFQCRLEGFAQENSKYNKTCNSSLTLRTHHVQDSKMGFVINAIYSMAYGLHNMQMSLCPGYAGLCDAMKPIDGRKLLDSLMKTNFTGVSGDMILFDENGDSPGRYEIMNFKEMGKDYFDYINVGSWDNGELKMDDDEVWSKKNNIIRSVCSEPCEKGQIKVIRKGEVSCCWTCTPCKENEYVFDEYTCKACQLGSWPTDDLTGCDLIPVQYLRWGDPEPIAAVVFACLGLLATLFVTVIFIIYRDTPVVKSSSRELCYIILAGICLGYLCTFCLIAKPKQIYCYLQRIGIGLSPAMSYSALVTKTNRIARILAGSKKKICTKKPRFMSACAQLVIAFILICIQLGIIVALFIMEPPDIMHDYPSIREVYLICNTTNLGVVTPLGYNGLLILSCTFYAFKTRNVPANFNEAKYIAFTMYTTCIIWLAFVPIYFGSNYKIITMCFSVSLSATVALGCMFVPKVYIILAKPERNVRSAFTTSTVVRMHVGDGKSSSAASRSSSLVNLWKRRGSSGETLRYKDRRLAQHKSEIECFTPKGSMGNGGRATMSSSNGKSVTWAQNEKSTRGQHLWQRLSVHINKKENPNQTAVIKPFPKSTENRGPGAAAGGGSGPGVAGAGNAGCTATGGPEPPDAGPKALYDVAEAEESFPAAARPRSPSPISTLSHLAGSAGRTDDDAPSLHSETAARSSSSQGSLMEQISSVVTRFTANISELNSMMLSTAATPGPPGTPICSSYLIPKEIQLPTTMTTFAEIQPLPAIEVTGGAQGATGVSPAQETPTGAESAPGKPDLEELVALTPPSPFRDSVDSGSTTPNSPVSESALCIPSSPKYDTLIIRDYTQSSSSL
Text: Activity of compounds of the invention was examined following a radioligand binding technique using whole rat brain and tritiated 2-methyl-6-(phenylethynyl)-pyridine ([^3H]-MPEP) as a ligand following similar methods than those described in Gasparini et al. (2002) Bioorg. Med. Chem. Lett. 12:407-409 and in Anderson et al. (2002) J. Pharmacol. Exp. Ther. 303 (3) 1044-1051.
Cortices were dissected out from brains of 200-300 g Sprague-Dawley rats (Charles River Laboratories, L'Arbresle, France). Tissues were homogenized in 10 volumes (vol/wt) of ice-cold 50 mM HEPES-NaOH (pH 7.4) using a Polytron disrupter (Kinematica AG, Luzern, Switzerland) and centrifuged for 30 min at 40,000 g. (4° C.). […] Protein concentration was determined by the Bradford method (Bio-Rad protein assay, Reinach, Switzerland) with bovine serum albumin as standard.
Membranes were thawed and resuspended in binding buffer containing 20 mM HEPES-NaOH, 3 mM MgCl2, 3 mM CaCl2, 100 mM NaCl, pH 7.4. […] Radioactivity was determined by liquid scintillation spectrometry using a 96-well plate reader (TopCount, Perkin-Elmer, Downers Grove, USA).
The inhibition curves were generated using the Prism GraphPad program (Graph Pad Software Inc, San Diego, USA). […] The mean of IC50 obtained from at least three independent experiments of selected molecules performed in duplicate were calculated.

T1 sequence (P31424 21-1171 isoform P31424-2 limits assumed): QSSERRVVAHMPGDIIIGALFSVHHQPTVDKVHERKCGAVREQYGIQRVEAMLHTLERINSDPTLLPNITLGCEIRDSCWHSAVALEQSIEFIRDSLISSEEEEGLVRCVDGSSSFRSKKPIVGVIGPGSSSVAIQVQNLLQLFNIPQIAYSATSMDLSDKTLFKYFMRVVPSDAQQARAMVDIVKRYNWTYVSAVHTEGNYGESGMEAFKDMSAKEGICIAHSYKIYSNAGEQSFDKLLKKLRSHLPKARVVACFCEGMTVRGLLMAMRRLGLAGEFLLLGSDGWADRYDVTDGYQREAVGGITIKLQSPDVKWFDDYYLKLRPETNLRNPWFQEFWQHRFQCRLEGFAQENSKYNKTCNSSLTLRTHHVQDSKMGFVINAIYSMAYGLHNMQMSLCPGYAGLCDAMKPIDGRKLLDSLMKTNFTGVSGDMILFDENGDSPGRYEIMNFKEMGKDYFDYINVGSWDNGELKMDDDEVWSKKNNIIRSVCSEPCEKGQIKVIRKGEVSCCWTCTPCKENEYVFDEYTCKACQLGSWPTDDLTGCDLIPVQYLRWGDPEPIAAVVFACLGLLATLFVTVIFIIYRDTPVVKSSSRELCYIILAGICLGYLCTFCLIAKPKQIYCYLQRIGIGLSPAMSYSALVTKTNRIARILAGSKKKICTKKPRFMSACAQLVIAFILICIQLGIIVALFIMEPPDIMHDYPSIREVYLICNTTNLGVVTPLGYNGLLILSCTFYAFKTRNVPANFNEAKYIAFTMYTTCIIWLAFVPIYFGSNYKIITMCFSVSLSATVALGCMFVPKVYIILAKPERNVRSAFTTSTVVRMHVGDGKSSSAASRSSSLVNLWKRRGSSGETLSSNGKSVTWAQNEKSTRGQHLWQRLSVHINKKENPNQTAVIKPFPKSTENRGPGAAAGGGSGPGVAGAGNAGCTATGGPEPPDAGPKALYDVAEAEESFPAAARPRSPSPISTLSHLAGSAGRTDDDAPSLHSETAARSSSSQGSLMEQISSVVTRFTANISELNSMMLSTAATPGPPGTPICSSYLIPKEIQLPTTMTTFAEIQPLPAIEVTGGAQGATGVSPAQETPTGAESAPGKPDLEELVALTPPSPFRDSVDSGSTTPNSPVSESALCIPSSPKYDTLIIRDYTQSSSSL

EC50 [1]: < 1 µM | IC50 [2]: < 30 µM
SMILES: O=C(c1ccc(F)cc1)N1CCC[C@H](c2nc(Cc3ccc(F)cc3)no2)C1 [Example 1, {(S)-3-[3-(4-Fluoro-benzyl)-[1,2,4]oxadiazol-5-yl]-piperidin-1-yl}-(4-fluoro-phenyl)-methanone]

From US20100004284A1, “Novel Heterocyclic Compounds as Positive Allosteric Modulators of Metabotropic Glutamate Receptors” (ADDEX PHARMA SA, priority 2005, published 2010)
